# PMC10253522 (2023)
# Tested on: aptamer beacon probe (ABP) (DNA, aptamer) ATTCTCTCACCTGGGGGAGTATTGCGGAGGAAGGTAT
# Assay: FAM-Dabcyl fluorescence quenching and fluorescence melting
# Conditions: 100 mM NaCl, 5 mM MgCl2, 20 mM Tris-HCl pH 7.4, 23 and 40 °C
compound,measurement,setting,value
O=c1ccn([C@@H]2O[C@H](COP(=O)(O)OP(=O)(O)OP(=O)(O)O)[C@@H](O)[C@H]2O)c(=O)[nH]1,binding,"625 µM UTP, no complex in melting, residual quenching",weak
Nc1ccn([C@@H]2O[C@H](COP(=O)(O)OP(=O)(O)OP(=O)(O)O)[C@@H](O)[C@H]2O)c(=O)n1,binding,"625 µM CTP, no complex in melting, residual quenching",weak
Nc1nc2c(ncn2[C@@H]2O[C@H](COP(=O)(O)OP(=O)(O)OP(=O)(O)O)[C@@H](O)[C@H]2O)c(=O)[nH]1,binding,"625 µM GTP, no complex in melting, residual quenching",weak
Nc1ncnc2c1ncn2[C@@H]1O[C@H](COP(=O)(O)OP(=O)(O)OP(=O)(O)O)[C@@H](O)[C@H]1O,binding,"133 nM probe, up to 625 µM ATP",yes
